We go through 3 compounds from US11951167B2, “Targeted liposomes” (GEORGETOWN UNIVERSITY, priority 2012, dated 2024).

One test has as its target T1, topoisomerase I (Homo sapiens, UniProt P11387).
T1 sequence (P11387 1-765): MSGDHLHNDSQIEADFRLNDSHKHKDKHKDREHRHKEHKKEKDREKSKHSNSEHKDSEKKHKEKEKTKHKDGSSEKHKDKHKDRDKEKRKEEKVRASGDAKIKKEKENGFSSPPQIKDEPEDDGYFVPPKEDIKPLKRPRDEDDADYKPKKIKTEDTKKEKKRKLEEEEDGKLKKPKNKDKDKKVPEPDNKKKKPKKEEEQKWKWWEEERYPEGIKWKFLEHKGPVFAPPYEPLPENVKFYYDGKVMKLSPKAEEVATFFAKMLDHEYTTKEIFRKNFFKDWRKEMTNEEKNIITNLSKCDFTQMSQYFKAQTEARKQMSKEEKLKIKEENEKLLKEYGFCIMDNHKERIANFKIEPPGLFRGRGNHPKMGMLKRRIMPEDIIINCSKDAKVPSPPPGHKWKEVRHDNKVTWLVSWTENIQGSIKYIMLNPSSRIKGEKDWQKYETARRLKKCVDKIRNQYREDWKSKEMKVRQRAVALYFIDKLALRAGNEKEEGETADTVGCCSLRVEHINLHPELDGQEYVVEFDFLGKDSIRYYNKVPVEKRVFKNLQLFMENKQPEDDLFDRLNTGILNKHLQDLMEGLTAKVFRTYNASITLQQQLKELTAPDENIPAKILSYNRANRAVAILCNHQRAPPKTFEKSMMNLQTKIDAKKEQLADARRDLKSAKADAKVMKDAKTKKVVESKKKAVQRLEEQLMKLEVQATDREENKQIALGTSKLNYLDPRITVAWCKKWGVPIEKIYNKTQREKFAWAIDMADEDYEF
As to conditions: cited from earlier work.

Test [1] deals with KMS-11 cells. Kind of test: Cell viability, MEL or scL-MEL combined with scL-p53. The class given is cell-based. As to conditions: Homo sapiens, scL-p53 DNA dose 0.2 ug/4×10^5 cells in the combination. The method, then:
Cells (4×10^5 per tube) were transfected with different scL/MEL complexes containing increasing doses of MEL. The scL-p53 was prepared as previously described (U.S. Pat. No. 7,780,822). The DNA dose used for all transfections was 0.2 ug/4×10^5 cells. […] The IC20 was used to allow detection of an additive or synergistic effect of the two treatments. The KMS-11 cells were transfect with Free (unencapsulated) MEL alone, scL-MEL alone, or the combination of Free (unencapsulated) or scL encapsulated MEL plus scL-p53 (FIG. 37).

The test system of test [2] is KMS-11 cells. Put plainly: Cell viability by Trypan Blue counting, MEL formulations. The note with it: Homo sapiens, KMS-11, 48 h. The class given is cell-based. The method, then:
The size of the scL-MEL nanocomplex was 45 and 57 nm, respectively.
For these in vitro cell survival studies, the human multiple myeloma cell line KMS-11 was used. These are non-adherent cells and grow in suspension. 4×10^5 cells in 2.6 ml of serum free media were incubated in a sterile 50 ml centrifuge tube with 400 ul of the scL-MEL (at either ratio) or unencapsulated MEL for one hour. Following this incubation, the medium was supplemented with fetal bovine serum to a final concentration of 10% (0.3 ml/tube). After incubation for an additional 47 h, cell viability was determined by Trypan Blue counting of the cells. To accomplish this, one part trypan blue solution is mixed with 1 part cell suspension (1:1 dilution) in a 2 mL eppendorf tube (e.g. 200 μL trypan blue is mixed with 200 μL cell suspension). Using a hemacytometer and a microscope the number of viable cells (unstained) and dead cells (stained) are counted. The average number of cells per 0.1 mm^3 is calculated and the number of cells per mL determined. The percent of viable cells is calculated as follows: Viable Cells %=(Number of viable cells/Number of Cells)*100
This complex was subsequently lyophilized and the samples stored in a desiccator at 2-8° C. After one week of storage the lyophilized scL-Mel complex was reconstituted with endotoxin free water and used to transfect KMS-11 cells as described above. […]

Another test concerns HT-29 xenograft tumors. Kind of test: Anti-tumor efficacy in subcutaneous colon xenografts. The class given is in vivo, athymic nude mice. How it is done: In our initial in vivo experiment, we assessed the anti-tumor efficacy of various molar ratios of liposome to IH. Tumors of human colon tumor cell line HT-29 were induced in female athymic nude mice (5-10 animals/group) by the subcutaneous injection of 3.12×10^5 cells/site/mouse suspended in Matrigel® collagen basement solution. When the tumors reached ˜100 mm^3 treatment was initiated. […] Groups of animals were also treated with Free IH, scL without IH, the nanocomplex without the targeting moiety (Lip-IH), as well as a group of untreated mice. The mice were IV injected twice weekly to a total of 15 injections. […] Thus, in the remainder of the studies the optimal ratio of 1:1 (Liposome:IH) was used in preparation of the scL-IH nanocomplex. […] Here also the mice received a total of 15 intravenous injections.

The subject of the next test is Hep G2 cells. Kind of test: XTT cell viability, IH formulations. Format: cell-based, human. How it is done:
(§1) After 24 hours, the media was replaced with serum-free medium, overlaid with 100 μL of increasing concentrations of either scL-IH nanocomplex, prepared as described above in Example 26, unliganded nanocomplex (L-IH), free IH or LipA only in serum-free medium. The cells were, incubated for 5 hours and then supplemented with FBS. […] The IC50 was interpolated from the graph of the log of drug concentration versus the fraction of surviving cells.

The test system of another test is PANC-1 cells. Kind of test: XTT cell viability, IH formulations. The class given is cell-based, human. The method, then:
as §1
A general note: Formazan colour is commonly taken as a measure of viable cells.

The test system of another test is HT-29 cells. Put plainly: XTT cell viability, IH formulations. Format: cell-based. As to conditions: Homo sapiens, 24 h. How it is done:
as §1

The structures appear in SMILES notation. A value given as a limit tells only on which side of the number the result lay.

Take `CCc1c2c(nc3ccc(O)cc13)-c1cc3c(c(=O)n1C2)COC(=O)[C@]3(O)CC` [SN-38, 7-ethyl-10-hydroxy-camptothecin]: the “potency relative to parent compound irinotecan” value on topoisomerase I is on record as “One thousand-fold more potent”.
As for `N[C@@H](Cc1ccc(N(CCCl)CCCl)cc1)C(=O)O` [MEL, melphalan], the IC50 with KMS-11 cells [1] was 10.9 µM; in the test with KMS-11 cells [2], 17.6 µM.
In the case of `CCc1c2c(nc3ccc(OC(=O)N4CCC(N5CCCCC5)CC4)cc13)-c1cc3c(c(=O)n1C2)COC(=O)[C@]3(O)CC` [IH, Irinotecan], the tumor growth entry in the test on HT-29 xenograft tumors (first experiment, IH 10 mg/kg i.v. twice weekly, 15 injections, Liposome:IH 1:1 for the complex) is “minimal effect on tumor growth”; with HT-29 xenograft tumors (second experiment (fresh vs lyophilized), IH 10 mg/kg, Liposome:IH 1:1, 15 injections), “only minimal effect”. The “cell kill at the low doses tested” value with Hep G2 cells and in the test on PANC-1 cells was “no effect” in each case. The compound further gave an IC50 in the test with HT-29 cells above 10 µM.

By IC50 is commonly meant the concentration at which inhibition is half-maximal.
